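Values below derive from 48-hour exposures of cells grown in 96-well plates, with endpoints linearly interpolated between the two concentrations bracketing the appropriate inhibition level. Abbreviation: GI50, concentration required for 50% inhibition of growth. The concentration for full growth arrest is given as TGI.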
Key:
Assay in all cases: NCI tumour cell line growth inhibition, 48 h
HCT-15 colon = system: HCT-15 colon
NCI-H460 lung = system: NCI-H460 lung
OVCAR-3 ovarian = system: OVCAR-3 ovarian
SF-295 CNS = system: SF-295 CNS
SK-MEL-28 melanoma = system: SK-MEL-28 melanoma
SK-OV-3 ovarian = system: SK-OV-3 ovarian
SN12C renal = system: SN12C renal
U251 CNS = system: U251 CNS
ACHN renal = system: ACHN renal
BT-549 breast = system: BT-549 breast

SMILES | TGI (HCT-15 colon) | TGI (NCI-H460 lung) | TGI (OVCAR-3 ovarian) | TGI (SF-295 CNS) | TGI (SK-MEL-28 melanoma) | TGI (SK-OV-3 ovarian) | TGI (SN12C renal) | TGI (U251 CNS) | TGI (ACHN renal) | TGI (BT-549 breast) | GI50 (ACHN renal) | GI50 (HCT-15 colon) | GI50 (NCI-H460 lung) | GI50 (OVCAR-3 ovarian) | GI50 (SF-295 CNS) | GI50 (SK-MEL-28 melanoma) | GI50 (SK-OV-3 ovarian) | GI50 (SN12C renal) | GI50 (U251 CNS) | GI50 (BT-549 breast)
CCS(=O)(=O)Nc1ccc(Nc2c3ccccc3nc3ccccc23)c(OC)c1 | 5.11 µM | 1.19 µM | 6.05 µM | 3.34 µM | 15.4 µM | 5.89 µM | 3.86 µM | 2.43 µM |  |  |  |  |  |  |  |  |  |  |  | 
N=c1c2c(C(N)=O)cn(C3OC(CO)C(O)C3O)c2ncn1O (stereo unspecified) | 0.388 µM | > 20.4 µM | 0.943 µM | 1.42 µM | 2.3 µM | > 36.3 µM | 0.444 µM | 3.14 µM | 0.311 µM | 4.61 µM |  |  |  |  |  |  |  |  |  | 
Cc1cccc2nc3c(C(=O)NCCN(C)C)cccc3cc12 | 6.68 µM | 4.18 µM | 7.5 µM | 4.65 µM | 3.62 µM | 7.9 µM | 5.98 µM | 8.63 µM |  |  |  |  |  |  |  |  |  |  |  | 
CCSCCC(N)C(=O)O (stereo unspecified) | > 100 µM | > 100 µM | > 100 µM | > 100 µM | > 100 µM | > 100 µM | > 100 µM | > 100 µM | > 100 µM | > 100 µM |  |  |  |  |  |  |  |  |  | 
Cc1nc(N)nc(N)c1-c1ccc(Cl)c(Cl)c1 | > 100 µM | > 92.1 µM | > 49 µM | > 100 µM | 47.1 µM | > 100 µM | > 100 µM | > 100 µM | > 100 µM | > 100 µM |  |  |  |  |  |  |  |  |  | 
COC(=O)C1=CC2CCCC1(O)C(C(C)=O)C2 (stereo unspecified) | > 100 µM | > 100 µM | > 100 µM | > 100 µM | > 100 µM | > 100 µM | > 100 µM | > 100 µM | > 100 µM | > 100 µM |  |  |  |  |  |  |  |  |  | 
CCOC(=O)C1(C(=O)OCC)Nc2cccnc2N(C)N1 | 36.2 µM | > 100 µM | 41.5 µM | > 100 µM | 93.8 µM | > 100 µM | 36 µM | 41.4 µM |  | > 100 µM |  |  |  |  |  |  |  |  |  | 
O=S(=O)(O)c1ccc2cccc(N=Nc3c(O)ccc4ccccc34)c2c1 | > 100 µM | > 100 µM | > 100 µM | > 100 µM |  | > 100 µM | > 100 µM | > 100 µM | > 100 µM | > 100 µM |  |  |  |  |  |  |  |  |  | 
COc1ccc(/C(=C2/O[C@@H]([C@H]3COC(C)(C)O3)[C@H]3OC(C)(C)O[C@@H]23)c2cc(OC)c(OC)c(OC)c2)cc1O | 39.7 µM | > 100 µM | 43.3 µM | 43.9 µM | > 100 µM | 91.7 µM | > 100 µM | 43.1 µM | > 100 µM |  | 15.4 µM | 4.06 µM | 29.3 µM | 4.84 µM | 18.7 µM | 10.6 µM | 12.6 µM | 8.9 µM | 5 µM | 
CC1CNc2ccccc2N=C1NN (stereo unspecified) | > 100 µM | > 100 µM | > 100 µM | > 100 µM | > 100 µM | > 100 µM | > 100 µM | > 100 µM | > 100 µM | > 100 µM |  |  |  |  |  |  |  |  |  | 
CC1SC(c2ccccc2)N(CCc2cccs2)C1=O (stereo unspecified) | 18.8 µM | 14.7 µM | 13.3 µM | 15.7 µM | 17.9 µM | 20.9 µM | 20.1 µM | 14.5 µM | 17.9 µM | 12.9 µM | 4.69 µM | 3.86 µM | 3.55 µM | 3.03 µM | 3.35 µM | 4.96 µM | 7.64 µM | 5.43 µM | 3.95 µM | 3.35 µM
COc1ccc(/C=C2\C(=O)N(C3OC(COC(C)=O)C(OC(C)=O)C(OC(C)=O)C3OC(C)=O)c3ccccc3N=C2N)cc1 (stereo unspecified) | > 100 µM | 75.8 µM | 65.1 µM | 72.1 µM | 72.2 µM | > 100 µM | > 100 µM | > 100 µM | > 100 µM | 71.6 µM |  |  |  |  |  |  |  |  |  | 
CCOC(=O)c1nc2ccc(Cl)cc2c2c1Cc1ccccc1-2 | > 100 µM |  | > 100 µM | > 100 µM | > 100 µM |  | > 100 µM | > 100 µM | > 100 µM |  |  |  |  |  |  |  |  |  |  | 
O=C(N/N=C(/c1ccccc1)C(F)(F)F)c1ccncc1 | > 100 µM | > 100 µM | > 100 µM | > 100 µM | > 100 µM | > 100 µM | > 100 µM | > 100 µM |  | > 100 µM |  |  |  |  |  |  |  |  |  | 
CN1CC[C@@]2(c3cccc(O)c3)CC(=O)/C(=C/c3ccccc3)[C@H]1C2 | 41.2 µM | 18.7 µM |  | 23.8 µM | 29 µM |  | 19.4 µM | 11.1 µM | 22.6 µM | 26.7 µM |  |  |  |  |  |  |  |  |  | 
CCN(CC)CC(C)Nc1ccc([N+](=O)[O-])c2sc3ccccc3c(=O)c12 (stereo unspecified) | 23.8 µM | 2.14 µM | 11.5 µM | 9.95 µM | 4.56 µM | 13.2 µM | 23.5 µM | 10.7 µM | 4.3 µM | 21.4 µM | 0.895 µM | 1.6 µM | 0.401 µM | 2.88 µM | 1.4 µM | 1.95 µM | 1.87 µM | 1.93 µM | 1.46 µM | 5.03 µM
COc1ccc2nc(N/N=C/C(C)=N/Nc3cc(C)c4cc(OC)ccc4n3)cc(C)c2c1 | 25.1 µM | 32.5 µM | 53.6 µM | 42.8 µM | 74.5 µM | > 100 µM | 51.4 µM | 31.6 µM | 55.3 µM | > 100 µM |  |  |  |  |  |  |  |  |  | 

— PubChem BioAssay (NCI)
